Legend:
[1] = system: human cervix carcinoma cell line Hela; assay: Confocal imaging of HeLa cells incubated with dye nanocrystal water dispersion; format: cell-based; conditions: confocal microscopy
Procedure: For cellular imaging, human cervix carcinoma cell line Hela was incubated with the prepared dye dispersion. The cell culture and imaging conditions are described in detail here. Human cervical carcinoma cell line (HeLa) was maintained in Dulbecco's modified eagle medium with 10% FBS according to the manufacturers instructions (American Type Culture Collection, Manassas, Va.). To study the uptake and imaging of HPPH nanocrystals, the cells were trypsinized and resuspended in the corresponding suitable media at a concentration of around 7.5×10^5/ml. 60 μl of this suspension was transferred to each 35 mm culture plate and 2 ml of the corresponding full medium was added. These plates were then placed in an incubator at 37° C. with 5% CO2 (VWR Scientific, model 2400). After 36 hours of incubation, the cells (about 60% confluency) were rinsed with PBS, and 2 ml of the corresponding fresh media was added to the plates. Finally, 50 μl of dye nanocrystals was added and mixed properly. Plates were returned to the incubator (37° C., 5% CO2) for the required incubation period. 50 μl of dye/Tween80 micelles of same dye concentration was used as control and separate culture plates were treated and incubated for the same time period as in the case of nanocrystals. […]

[2] = Size of TPB and perylene nanocrystals in water dispersion; format: physicochemical
Procedure: Briefly, 200 μl of dye acetone solution (10 mM concentration ) was injected into magnetically stirring water (10 ml). The average size of nanoparticle was estimated to vary from 50 nm to 200 nm depending on the concentration of original organic solution and water temperature. A homogenous dispersion of the dye nanocrystals without any noticeable aggregation or clumps was produced. Optical properties of the prepared nanocrystals were studied using UV-Visible and fluorescence spectroscopy. UV-visible absorption spectra as well as the fluorescence spectra of the nanocrystals were acquired using a Shimadzu 3600 UV spectrometer and a Jobin-Yvon Spectramax fluorimeter. Changes in absorption spectra as well as fluorescence intensity changes (such as quenching) were studied by comparing the spectra of nanocrystals in water with that of organic solution.
For this experiment, perylene was dissolved on DMSO at 1 mM, 10 mM or 100 mM. The nanocrystals were prepared as described in Example 1 by adding to water at 4° C. or 80° C.

**Q.** Which intracellular staining pattern [1] does the source give for c1cc2cccc3c4cccc5cccc(c(c1)c23)c54 [perylene] here?
**A.** The intracellular staining pattern was “staining the entire cytoplasm with higher dye accumulation in vescicular bodies such as lysosomes”.

**Q.** And the “size of the nanocrystals versus concentration of the dye” value ([2]; perylene in DMSO at 1 mM, 10 mM or 100 mM, added to water at 4° C. or 80° C.)?
**A.** Its value is “increase with increasing concentration”.

**Q.** What about the “size of the nanocrystals versus water temperature” value ([2]; water at 4° C. or 80° C.) of the same compound?
**A.** Its value is “greater at the higher water temperature”.

— patent US20070086949A1, “Method of bioimaging using nanocrystals of fluorescent dyes” (priority 2005, published 2007)
